Read-outs that look alike come from different tables or passages of the source.
What was measured:
[1] = system: Sweetpotato Whitefly-Crawler (Bemisia Tabaci); test: Insecticidal test for sweetpotato whitefly-crawler in foliar spray assay (col. BEMITA); type: in vivo; details: for pest or weed control at 200 ppm: Bemisia tabaci, read-out: BEMITA 200 ppm (Corrected % Control, rating)
Outline: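 Percent control, Abbott-corrected against diluent-sprayed plants, from microscope counts of live nymphs 8-9 days after treatment. Test solution at 200 ppm in 0.025% aqueous Tween 20 applied to both leaf sides of egg-infested cotton after a 5-6 day hatch period (82° F, 50% RH).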

[2] = system: Green Peach Aphid (Myzus Persicae); test: Insecticidal test for green peach aphid in foliar spray assay (col. MYZUPE); type: in vivo; details: for pest or weed control at 200 ppm: Myzus persicae, 72 h, read-out: MYZUPE 200 ppm (Corrected % Control, rating)
Outline: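 Corrected % control derives from microscope counts of live aphids per plant, treated against diluent-only checks, 3 days after foliar spraying at ~25 °C and 40% RH. Test solution was 200 ppm in 0.025% aqueous Tween 20, applied to both leaf sides of infested cabbage seedlings, four pots each.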

| Structure (SMILES) | pest or weed control at 200 ppm ([1]; Abbott's correction formula) | pest or weed control at 200 ppm ([2]; Abbott's correction formula) | pest or weed control at 200 ppm ([1]; sweetpotato whitefly-crawler) | pest or weed control at 200 ppm ([2]; green peach aphid) | further results |
| --- | --- | --- | --- | --- | --- |
| CN(C(=O)CC[S+](C)[O-])c1sc(-c2cccnc2)nc1Br (stereo not drawn) [Compound 506] | < 80% | 80 to 100% | – | – | – |
| CCN(C(=O)C(C)C[S+](C)[O-])c1sc(-c2cccnc2)nc1Cl (stereo not drawn) [Compound 348] | – | – | 80 to 100% | 80 to 100% | – |
| Cc1nc(-c2cncc(F)c2)sc1N(C)C(=O)C(C)CSCc1ccc(Cl)cc1 (stereo not drawn) [Compound 190] | – | – | 80 to 100% | 80 to 100% | – |
| CN(C(=O)C1(C)CC1)c1sc(-c2cccnc2)nc1Cl [Compound 566] | 80 to 100% | 80 to 100% | – | – | – |
| CSCC(C)C(=O)N(C)c1sc(-c2cccnc2)nc1Br (stereo not drawn) [Compound 505] | 80 to 100% | 80 to 100% | – | – | – |
| CSCCC(=O)N(C)c1sc(-c2cncnc2)nc1Cl [Compound 509] | 80 to 100% | 80 to 100% | – | – | – |
| Cc1nc(-c2cccnc2)sc1N(C)C(=O)c1ccns1 [Compound 345] | – | – | – | – | BEMITA 200 ppm (Corrected % Control, rating) ([1]; sweetpotato whitefly-crawler): A (80-100); MYZUPE 200 ppm (Corrected % Control, rating) ([2]; green peach aphid): A (80-100) |
| CN(C(=O)CCS(C)(=O)=O)c1sc(-c2cccnc2)nc1Br [Compound 507] | 80 to 100% | 80 to 100% | – | – | – |
| CSCCN(C)C(=O)N(C)c1cnc(-c2cncc(F)c2)s1 [Compound 74, [2-(5-fluoropyridin-3-yl)-thiazol-5-yl]-1,3-dimethyl-3-(2-methylsulfanyl-ethyl)urea] | – | – | 80 to 100% | 80 to 100% | – |
| CCN(C(=O)c1cccs1)c1sc(-c2cccnc2)nc1Cl [Compound 554] | < 80% | < 80% | – | – | – |
| Cc1nc(-c2cncc(F)c2)sc1N(C)C(=O)C1CCCN(C(=O)CC(F)(F)F)C1 (stereo not drawn) [Compound 584] | < 80% | < 80% | – | – | – |
| Cc1nc(-c2cccnc2)sc1NC(=O)CN(C)C(=O)c1cccs1 [Compound 438] | < 80% | 80 to 100% | – | – | – |
| CCN(C(=O)OC(C)(C)C)c1sc(-c2cccnc2)nc1C [Compound 12, Ethyl-(4-methyl-2-pyridin-3-yl-thiazol-5-yl)-carbamic acid tert-butyl ester] | – | – | 80 to 100% | 80 to 100% | – |
| CSCc1ccc(C(=O)Nc2sc(-c3cccnc3)nc2C)o1 [Compound 408] | – | – | 80 to 100% | 80 to 100% | – |
| CCN(C(=O)CCSC)c1sc(-c2cccnc2)nc1-c1ccccc1 [Compound 61] | – | – | < 80% | < 80% | – |
| CCN(C(=O)Cc1cccs1)c1sc(-c2cccnc2)nc1Cl [Compound 550] | 80 to 100% | < 80% | – | – | – |
| CSCC(C)C(=O)Nc1sc(-c2cncc(F)c2)nc1Cl (stereo not drawn) [Compound 364] | – | – | 80 to 100% | 80 to 100% | – |
| Cc1nc(-c2cccnc2)sc1N(CCS(C)(=O)=O)C(=O)OC(C)(C)C [Compound 568] | < 80% | < 80% | – | – | – |
| CCN(C(=O)C(C)CS(C)(=O)=O)c1sc(-c2cncc(F)c2)nc1C (stereo not drawn) [Compound 259] | – | – | – | – | BEMITA 200 ppm (Corrected % Control, rating) ([1]; sweetpotato whitefly-crawler): A (80-100); MYZUPE 200 ppm (Corrected % Control, rating) ([2]; green peach aphid): A (80-100) |
| CCN(C(=O)c1snnc1C)c1sc(-c2cccnc2)nc1Cl [Compound 556] | < 80% | 80 to 100% | – | – | – |
| CC(=O)c1ccc(C(=O)Nc2sc(-c3cccnc3)nc2C)s1 [Compound 347] | – | – | < 80% | < 80% | – |
| CCC(CS(C)(=O)=O)C(=O)N(CC)c1sc(-c2cccnc2)nc1Cl (stereo not drawn) [Compound 560] | 80 to 100% | 80 to 100% | – | – | – |
| C[C@H](C(=O)N(C)c1sc(-c2cccnc2)nc1Cl)N(C)C(=O)OCc1ccccc1 [Compound 440] | < 80% | < 80% | – | – | – |
| CSCCC(=O)N(C)c1sc(-c2cccnc2)nc1C(F)(F)F [Compound 43] | – | – | 80 to 100% | 80 to 100% | – |
| CCOC(=O)N1CCCC(C(=O)N(C)c2sc(-c3cncc(F)c3)nc2C)C1 (stereo not drawn) [Compound 586] | 80 to 100% | 80 to 100% | – | – | – |
| CC(C)(C)OC(=O)Nc1sc(-c2cccnc2)nc1C(F)(F)F [Compound 7, (2-pyridin-3-yl-4-trifluoromethyl-thiazol-5-yl)-carbamic acid tert-butyl ester] | – | – | < 80% | < 80% | – |
| CSCC(C)(C)C(=O)Nc1sc(-c2cccnc2)nc1C [Compound 57] | – | – | 80 to 100% | 80 to 100% | – |

| Structure (SMILES) | pest or weed control at 200 ppm ([1]; Abbott's correction formula) | pest or weed control at 200 ppm ([2]; Abbott's correction formula) | pest or weed control at 200 ppm ([1]; sweetpotato whitefly-crawler) | pest or weed control at 200 ppm ([2]; green peach aphid) | further results |
| --- | --- | --- | --- | --- | --- |
| Cc1nc(-c2cccnc2)sc1N(CCF)C(=O)OC(C)(C)C [Compound 301] | – | – | 80 to 100% | 80 to 100% | – |
| CN(C(=O)CC[S+](C)[O-])c1sc(-c2cccnc2)nc1Cl (stereo not drawn) [Compound 174] | – | – | 80 to 100% | 80 to 100% | – |
| COCC(=O)N1CCCC(C(=O)N(C)c2sc(-c3cncc(F)c3)nc2C)C1 (stereo not drawn) [Compound 583] | 80 to 100% | 80 to 100% | – | – | – |
| Cc1nc(-c2cccnc2)sc1N(C)C(=O)C(C)C [Compound 37] | – | – | 80 to 100% | 80 to 100% | – |
| CCN(C(=O)CCSCc1ccccc1)c1sc(-c2cccnc2)nc1C [Compound 320] | – | – | < 80% | 80 to 100% | – |
| Cc1nc(-c2cccnc2)sc1NC(=O)c1ccns1 [Compound 344] | – | – | < 80% | < 80% | – |
| CC(=O)N1CCCC(C(=O)N(C)c2sc(-c3cccnc3)nc2Cl)C1 (stereo not drawn) [Compound 413] | – | – | < 80% | 80 to 100% | – |
| C=Cc1nc(-c2cncc(F)c2)sc1N(C)C(=O)OC(C)(C)C [Compound 363, [2-(5-fluoro-pyridin-3-yl)-4-vinyl-thiazol-5-yl]-methyl-carbamic acid-tert-butyl ester] | – | – | 80 to 100% | < 80% | – |
| CN(C(=O)C(F)(F)F)c1cnc(-c2cncc(F)c2)s1 [Compound 1, 2,2,2-trifluoro-N-[2-(5-fluoropyridin-3-yl)-thiazol-5-yl]-N-methyl-acetamide] | – | – | 80 to 100% | < 80% | – |
| CCSCCC(=O)N(CC)c1sc(-c2cccnc2)nc1C [Compound 322] | – | – | < 80% | 80 to 100% | – |
| Cc1nc(-c2cccnc2)sc1N(C)C(=O)C(CC(C)C)NC(=O)OC(C)(C)C (stereo not drawn) [Compound 283] | – | – | < 80% | < 80% | – |
| Cc1nc(-c2cccnc2)sc1N(C)C(=O)c1ccc([S+](C)[O-])cc1 (stereo not drawn) [Compound 402] | – | – | – | – | BEMITA 200 ppm (Corrected % Control, rating) ([1]; sweetpotato whitefly-crawler): A (80-100); MYZUPE 200 ppm (Corrected % Control, rating) ([2]; green peach aphid): A (80-100) |
| CN(C(=O)c1ccc([S+](C)[O-])cc1)c1sc(-c2cccnc2)nc1Cl (stereo not drawn) [Compound 403] | – | – | – | – | BEMITA 200 ppm (Corrected % Control, rating) ([1]; sweetpotato whitefly-crawler): B (Less than 80); MYZUPE 200 ppm (Corrected % Control, rating) ([2]; green peach aphid): A (80-100) |
| CCN(C(=O)C(C)C)c1sc(-c2cncc(F)c2)nc1F [Compound 424] | – | – | 80 to 100% | 80 to 100% | – |
| Cc1nc(-c2cccnc2)sc1NC(=O)CN(C)C(=O)C(C)n1cccn1 (stereo not drawn) [Compound 429] | < 80% | 80 to 100% | – | – | – |
| CSCC(Cc1ccccc1)C(=O)N(C)c1sc(-c2cccnc2)nc1C (stereo not drawn) [Compound 330] | – | – | < 80% | < 80% | – |
| CCN(C(=O)OC(C)(C)C)c1sc(-c2cncc(F)c2)nc1F [Compound 423] | – | – | 80 to 100% | < 80% | – |
| CN(C(=O)C1CCN1C(=O)OC(C)(C)C)c1sc(-c2cccnc2)nc1Cl (stereo not drawn) [Compound 339] | – | – | – | – | BEMITA 200 ppm (Corrected % Control, rating) ([1]; sweetpotato whitefly-crawler): A (80-100); MYZUPE 200 ppm (Corrected % Control, rating) ([2]; green peach aphid): B (Less than 80) |
| CSCC(C)C(=O)N(CC1CC1(F)F)c1sc(-c2cccnc2)nc1C (stereo not drawn) [Compound 467] | < 80% | 80 to 100% | – | – | – |
| CN(C(=O)c1ccns1)c1sc(-c2cccnc2)nc1Cl [Compound 346] | – | – | – | – | BEMITA 200 ppm (Corrected % Control, rating) ([1]; sweetpotato whitefly-crawler): A (80-100); MYZUPE 200 ppm (Corrected % Control, rating) ([2]; green peach aphid): B (Less than 80) |
| CSC(C)C(C)C(=O)N(C)c1sc(-c2cncc(F)c2)nc1Cl (stereo not drawn) [Compound 444] | 80 to 100% | 80 to 100% | – | – | – |
| CCN(C(=O)C(C)(C)C[S+](C)[O-])c1sc(-c2cncc(F)c2)nc1C (stereo not drawn) [Compound 260] | – | – | 80 to 100% | 80 to 100% | – |
| Cc1nc(-c2cccnc2)sc1N(C)C(=O)C(C)N(C)C(=O)OC(C)(C)C (stereo not drawn) [Compound 294] | – | – | < 80% | < 80% | – |
| CC(C)C(=O)N(C)c1sc(-c2cccnc2)nc1Cl [Compound 231] | – | – | 80 to 100% | 80 to 100% | – |
| CN(C(=O)CC(C)(C)[S+](C)[O-])c1sc(-c2cccnc2)nc1Cl (stereo not drawn) [Compound 521] | < 80% | 80 to 100% | – | – | – |
| CC(C)(C)OC(=O)Nc1sc(-c2cncc(F)c2)nc1F [Compound 353, [4-fluoro-2-(5-fluoro-pyridin-3-yl)-thiazol-5-yl]-carbamic acid tert-butyl ester] | – | – | 80 to 100% | < 80% | – |
| Cc1nc(-c2cccnc2)sc1N(C)C(=O)CN(C)S(C)(=O)=O [Compound 433] | 80 to 100% | 80 to 100% | – | – | – |

— patent publication US8853246B2 (Dow AgroSciences LLC, priority 2009, dated 2014)
